From US9765019B2, “Small-molecule-targeted protein degradation” (Brandeis University, priority 2011, dated 2017)
Entries after “also recorded” stand apart in the source; their conditions may differ. One block for each compound: values may come before it. Residues, ends and D or L forms follow the SMILES beside them. *: point of attachment. Cbz = O=C(OCc1ccccc1)*

What was measured:
[1] = biological target: T1, human glutathione-S-transferase α-1 (Homo sapiens, UniProt P08263); assay: Degradation of pre-inhibited GST-α-1 in cell lysates (Western blot); format: biochemical; details: for Degradation of GST-α-1 in cell lysates: protein pre-treated with inhibitor, lysates from reticulocytes, HeLa, Cos and NIH 3T3 cells
T1 construct: HA (N); made in house; host or cells: Escherichia coli (pOXO4-α1 vector)
T1 sequence (P08263 1-222): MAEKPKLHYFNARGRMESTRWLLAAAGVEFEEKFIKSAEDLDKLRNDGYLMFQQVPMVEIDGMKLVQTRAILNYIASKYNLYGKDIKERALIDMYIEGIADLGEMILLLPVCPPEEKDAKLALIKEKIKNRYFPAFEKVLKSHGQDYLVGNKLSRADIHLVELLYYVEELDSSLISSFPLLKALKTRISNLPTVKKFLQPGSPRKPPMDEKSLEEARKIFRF
Procedure: The gel was transferred onto a polyvinyldifluoride membrane in Towbin (3 g Tris/14.4 g glycine) buffer, 100V for 1.2 hours then 40V for 3 hours for 18% gels, and 100 V for 1.2 hours for 12% gels. The membrane was blocked with 3% non-fat milk in Tris buffered saline (100 mM Tris base, 500 mM NaCl, pH 7.6) for one hour, then directly added to a solution of anti HA-HRP conjugated antibody in 0.5% non-fat milk in Tris buffered saline with 0.05% tween-20 for 2 hours. Membrane was washed twice with Tris buffered saline with 0.05% Tween 20 for 10 minutes, then washed once with Tris buffered saline for 15 minutes. The residual buffer was removed then exposed to ECL Plus™ (GE healthcare) for 5 minutes. Membrane was visualized by exposure to film (HyBlot CL, Denville Scientific). For in cell degradation assays, the membrane was cut in half (at approximately 40 kiloDaltons) and the lower molecular weight portion was probed and visualized with anti-GAPDH-HRP, protocol same as for anti-HA except Tris buffered saline contained 150 mM NaCl, not 500 mM. The higher molecular weight portion of the membrane was probed and visualized with anti-HA-HRP.
Human glutathione-S-transferase α-1 bearing an N-terminal HA tag was recombinantly expressed in Escherichia coli using the pOXO4-α1 vector. This was purified using glutathione affinity chromatography (GST-Bind™, Novagen). Escherichia coli dihydrofolate reductase bearing an N-terminal (His)6 tag and a C-terminal HA tag was recombinantly expressed in Escherichia coli using a pET28a vector. This was purified using Ni-NTA resin (Qiagen).
The cells were then serum starved for 2 days in the case of Cos and HeLa cells and 1 day in the case of NIH3T3 cells. The cells were washed with phosphate buffered saline and then trypsinized. Cells were collected, and an equal volume of complete medium was added. Cells were pelleted by centrifugation and the supernatant was aspirated. The cell pellet was washed three times with phosphate buffered saline. Cell pellets were stored at −80° C. until required. Cells were thawed on ice and maintained at 4° C. until required for the assay. […] The cells were lysed in a Dounce homogenizer (10 strokes), and then centrifuged at 14000 rpm for 30 minutes. The clarified lysate was normalized to an optimized concentration of 1 mg/mL (Bradford assay, Biorad®, as per manufacturer's instructions, using immunoglobulin as a standard) with lysis buffer. A 10×ATP regeneration buffer was made consisting of the following 1 mg/mL creatine kinase (Roche Diagnostics®), 600 mM creatine phosphate, 100 mM ATP, 200 mM Tris pH 8.0, 600 mM MgCl2. This was incubated at 37° C. for 30 minutes prior to use. Assays were conducted in […] total volume [including 1×ATP regeneration buffer, and 120 ng of HA-tagged protein (1 μL) preinhibited with 100 μM ethacrynic acid-derived inhibitor, or 1 μM trimethoprim-derived inhibitor] in 250 μL PCR tubes. Prior to assay 50 μL Chill Out wax (Biorad®) was overlaid on the top of the vial. 15 μL aliquots were extracted and diluted into 6 μL of 5× reducing SDS PAGE loading buffer and immediately frozen by being placed into dry ice. These were stored at −80° C. until required. Samples were thawed at 100° C. and continued to be boiled for 5 minutes. The samples were then centrifuged at 14,000 rpm on a microcentrifuge for 30 minutes and loaded onto an 18% polyacrylamide SDS PAGE gel, and Western blotted as per Example 2.

eDHFR-HA-GFP = eDHFR-HA-GFP (Escherichia coli, UniProt P0ABQ4); details: transfected HeLa cells
Procedure: FIG. 6 depicts degradation of eDHFR-HA in cell lysates and degradation of eDHFR fusion proteins in HeLa cells. (A) Degradation of eDHFR in HeLa cells lysates; (B) quantification of panel (A); (C) Global protein stability (GPS) assay. Cells co-express red fluorescent protein (RFP) and DHFR-HA-GFP from a bicistronic construct. Red and green fluorescence was measured by flow cytometry.
Protein degradation in whole cells was also assessed. eDHFR-HA-GFP was co-expressed with Discosoma sp. red fluorescent protein (RFP) in a bicistronic construct under control of a CMV promoter, with DHFR-HA-GFP translation occurring at the internal ribosome binding site. Thus a single mRNA is responsible for the production of both RFP and DHFR-HA-GFP, so that similar ratios of both proteins should be produced in all transfected cells. Changes in the relative intensities of red and green fluorescence are measured by flow cytometry, providing a facile and quantitative measure of the degradation of DHFR-HA-GFP in living cells and real time.
Cells were grown to 90% confluence in Dulbecco's Modified Minimal Essential Medium supplemented with 10% fetal bovine serum, 1×L-glutamine with no antibiotic in a 6 well plate. At this point the cells were serum starved, and then transfected using […] plasmid (expression driven by the cytomegalovirus promoter; gene coding for enhanced green fluorescent protein fused to the C-terminus of E. coli dihydrofolate reductase): 2 μL Transfectin™ (Biorad) per well. 48 hours after transfection, media was once again aspirated, and fresh serum free media was added. Cycloheximide (final concentration 100 μg/mL) was then added to the cells and after 5 minutes, 30 μM inhibitor was added. At each time point (45 minutes), media was aspirated, cells were trypsinized, centrifuged and washed three times with phosphate buffered saline. Cell pellets were flash frozen in dry ice, and then stored indefinitely at −80° C. The cells were thawed on ice, and then resuspended in lysis buffer (150 mM sucrose, 200 mM sodium phosphate, 43 mM MgCl2, pH 7.8, 0.1% triton X-100). Cells were lysed by two freeze/thaw cycles (−80° C. for 5 minutes, then 4° C. for 10 minutes). Lysate concentrations were normalized by dilution with lysis buffer such that they gave the same A595 when diluted into Bradford assay dye (Biorad).

proteasome = assay: Effect of proteasome inhibitors on Boc3Arg-induced degradation (lysates and whole HeLa cells); details: GST-α-1 in cell lysates; eDHFR fusion proteins in HeLa cells
eDHFR-HA-GST-α1 = biological target: T2, eDHFR-HA-GST-α1 (UniProt P08263+P0ABQ4); assay: Degradation of eDHFR-HA-GST-α1 ectopically expressed in HeLa cells; format: cell-based; details: for Degradation of eDHFR-HA-GST-α1: cycloheximide treated HeLa cells
T2 construct: expressed in transfected cells; host or cells: HeLa cells
T2 sequence (P0ABQ4+P08263 with tags, fused parts or gaps): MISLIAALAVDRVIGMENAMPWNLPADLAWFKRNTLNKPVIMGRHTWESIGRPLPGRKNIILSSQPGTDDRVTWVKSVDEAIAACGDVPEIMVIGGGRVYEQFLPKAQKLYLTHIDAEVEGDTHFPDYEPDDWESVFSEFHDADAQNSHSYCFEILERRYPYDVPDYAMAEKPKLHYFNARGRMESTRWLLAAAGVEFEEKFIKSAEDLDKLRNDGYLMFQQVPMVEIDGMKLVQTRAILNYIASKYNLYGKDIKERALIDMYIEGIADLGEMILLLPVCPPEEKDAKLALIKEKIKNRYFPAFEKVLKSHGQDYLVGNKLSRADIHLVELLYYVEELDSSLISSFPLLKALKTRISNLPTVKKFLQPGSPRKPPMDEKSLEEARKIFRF
Text: FIG. 5 depicts degradation of GST-α1-HA in HeLa cell lysates and eDHFR-HA-GST in HeLa cells.

endogenous GST-π = assay: Degradation of endogenous GST-π in whole cells (immunoblot); format: cell-based; details: two hours
Procedure: FIG. 12 depicts degradation of endogenous GST-π. Cells were incubated with EA-Boc3Arg for 2 hours. Degradation was monitored by immuno-blotting with anti-GST antibodies. EA=right bar; EA-Boc3-Arg=left bar.
The ability of EA-Boc3Arg to degrade endogenous GST-π in the context of whole cells was also investigated. […] The Boc3Arg moiety can regulate endogenous protein levels in vivo.

Structure (SMILES): CC(C)(C)OC(=O)N=C(NCCCC(NC(=O)OC(C)(C)C)C(=O)NCCCCCCSc1ccc([N+](=O)[O-])c2nonc12)NC(=O)OC(C)(C)C (centres unmarked) [Fur-Boc3Arg, 5-(2,3-Di-tert-butoxycarbonylguanidino)-2-(tert-butoxycarbonylamino)-N-(6-(7-nitrobenzo[c][1,2,5]oxadiazol-4-ylthio)hexyl)pentan amide]
Degradation of Fur-Boc3Arg-modified GST-α-1 ([1]; NIH 3T3 cell lysates): readily degraded; also recorded: induces the degradation

Structure (SMILES): Cc1cc(C(=O)CN2CCCC2)c(C)n1-c1ccc(F)cc1 [PU1, reference compound]
Effect on degradation of eDHFR-HA-GFP (eDHFR-HA-GFP): slower

Structure (SMILES): CC(=O)N[C@@H](CSC(=O)[C@]1([C@@H](O)C(C)C)NC(=O)[C@H](C)[C@@H]1O)C(=O)O [lactacystin]
Effect on Boc3Arg-induced degradation (proteasome): block

Degradation of GST-α-1 in cell lysates [1]: functional degradation tag
Structure (SMILES): C=C(CC)C(=O)c1ccc(OCC(=O)NCCCCCCNC(=O)C(CCCNC(=N)NS(=O)(=O)c2ccc(C)cc2)NOC(=O)Cc2ccccc2)c(Cl)c1Cl (centres unmarked) [Compound 2, N-(6-(2-(2,3-Dichloro-4-(2-methylenebutanoyl)phenoxy)acetamido)hexyl)-2-(benzylcarbonyloxyamino)-5-(3-tosylguanidino)pentanamide]

Structure (SMILES): CC(C)C[C@H](NC(=O)[C@H](Cc1ccccc1)NC(=O)c1cnccn1)B(O)O [bortezomib]
Effect on degradation of eDHFR-HA-GFP (eDHFR-HA-GFP): slower
Effect on degradation of eDHFR-HA-GST-α1 by EA-Boc3Arg (eDHFR-HA-GST-α1; cycloheximide and non-cycloheximide treated HeLa cells): retards degradation
Effect on Boc3Arg-induced degradation (proteasome): block; also recorded: prevent degradation

Structure (SMILES): C=C(CC)C(=O)c1ccc(OCC(=O)NCCCCCCNC(=O)C(CCCNC(=NC(=O)OC(C)(C)C)NC(=O)OC(C)(C)C)NC(=O)OC(C)(C)C)c(Cl)c1Cl (centres unmarked) [EA-Boc3Arg, N-(6-(2-(2,3-Dichloro-4-(2-methylenebutanoyl)phenoxy)acetamido)hexyl)-5-(2,3-di-t-butoxycarbonylguanidino)-2-(t-butoxycarbonylamino)pentanamide]
Degradation of GST-α-1 in cell lysates [1]: Degradation was observed
Degradation of GST-α-1 in cell lysates ([1]; listed as 1): promotes the degradation
depletion in the GST-π signal (endogenous GST-π): 30%
Degradation of eDHFR-HA-GST-α1 (eDHFR-HA-GST-α1): can cause degradation

Structure (SMILES): CC(C)C[C@@H](C=O)NC(=O)[C@H](CC(C)C)NC(=O)[C@H](CC(C)C)NC(=O)OCc1ccccc1 [MG 132] (Cbz-Leu-Leu-Leu-aldehyde)
Effect on Boc3Arg-induced degradation (proteasome): block; also recorded: prevent degradation

Structure (SMILES): C=C(CC)C(=O)c1ccc(OCC(=O)O)c(Cl)c1Cl [EA, ethacrynic acid, reference compound]
Degradation of GST-α-1 in cell lysates [1]: No degradation was observed
Degradation of eDHFR-HA-GST-α1 (eDHFR-HA-GST-α1): does not
